Data reported in patent publication US8163909B2, “Substituted hydroxyethyl amine compounds as beta-secretase modulators and methods of use” (Amgen Inc., priority 2007, dated 2012).
pIC50: −log10 of the molar value.

Assays:
[1] = molecular target: Beta Secretase enzyme (BACE) (Homo sapiens, UniProt P56817); test: In vitro enzymatic BACE FRET (fluorescence resonance energy transfer) assay; type: biochemical; conditions: BACE enzyme assay IC50; read-out: BACE1 FRET assay;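 note: fluorescence read after 1 h with 50 nM quenched peptide substrate spanning the BACE cleavage site, in pH 4.2 acetate buffer containing 10% DMSO and nonionic detergent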
[2] = Microsomal stability assay, rat liver microsomes; conditions: rat liver microsomes;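 note: rat liver microsomes (0.25 mg/mL) with about 1 µM compound plus 1 mM NADPH, pH 7.4, 37 °C for 30 min, parent left measured by LC-MS/MS against 0 min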
[3] = test system: Aβ40 in conditioned medium of cells stably expressing Amyloid Precursor Protein (APP); test: In vitro BACE cell-based assay (Aβ40 in conditioned medium, sandwich ELISA); conditions: Homo sapiens, HEK293, HEK cell-based assay IC50; read-out: HEK cell assay;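 note: compounds added as a dilution series, secreted peptide quantified by europium time-resolved fluorescence readout, potency fitted from percent of control versus compound concentration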
[4] = Microsomal stability assay, human liver microsomes; conditions: human liver microsomes;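 note: pooled human liver microsomes at 0.25 mg/mL with 1 µM compound and NADPH at 37 °C, pH 7.4, for 30 min, unchanged parent quantified by LC-MS/MS against the 0 min sample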
CYP2D6 = CYP2D6 (Homo sapiens, UniProt P10635); test: CYP2D6 inhibition assay (bufuralol, pooled human liver microsomes); conditions: 2D6 IC50 (uM), CYP2D6 inhibition
CYP3A4 (CYP3A) = CYP3A4 (CYP3A) (Homo sapiens, UniProt P08684); test: in vitro; conditions: microsomes, pH 7.4;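 note: inhibition of CYP3A-mediated 1-hydroxymidazolam formation after 10 min incubation with NADPH, quantified by HPLC MS relative to metabolite produced without test compound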
Sequence of CYP3A4 (CYP3A) (P08684 2-503): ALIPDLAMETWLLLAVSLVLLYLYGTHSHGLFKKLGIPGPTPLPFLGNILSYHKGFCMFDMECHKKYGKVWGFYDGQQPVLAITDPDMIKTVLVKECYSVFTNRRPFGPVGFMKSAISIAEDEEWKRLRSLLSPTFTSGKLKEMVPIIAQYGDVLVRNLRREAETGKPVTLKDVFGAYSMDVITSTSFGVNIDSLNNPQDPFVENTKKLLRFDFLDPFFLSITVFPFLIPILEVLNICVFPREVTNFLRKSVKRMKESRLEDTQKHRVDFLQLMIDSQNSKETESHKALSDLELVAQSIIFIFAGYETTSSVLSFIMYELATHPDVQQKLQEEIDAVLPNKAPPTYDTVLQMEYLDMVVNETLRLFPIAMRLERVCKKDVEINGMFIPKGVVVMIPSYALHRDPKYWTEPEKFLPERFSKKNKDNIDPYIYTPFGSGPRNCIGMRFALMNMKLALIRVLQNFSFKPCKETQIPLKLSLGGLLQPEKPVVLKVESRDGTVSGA

Sequence of CYP2D6 (P10635 whole entry): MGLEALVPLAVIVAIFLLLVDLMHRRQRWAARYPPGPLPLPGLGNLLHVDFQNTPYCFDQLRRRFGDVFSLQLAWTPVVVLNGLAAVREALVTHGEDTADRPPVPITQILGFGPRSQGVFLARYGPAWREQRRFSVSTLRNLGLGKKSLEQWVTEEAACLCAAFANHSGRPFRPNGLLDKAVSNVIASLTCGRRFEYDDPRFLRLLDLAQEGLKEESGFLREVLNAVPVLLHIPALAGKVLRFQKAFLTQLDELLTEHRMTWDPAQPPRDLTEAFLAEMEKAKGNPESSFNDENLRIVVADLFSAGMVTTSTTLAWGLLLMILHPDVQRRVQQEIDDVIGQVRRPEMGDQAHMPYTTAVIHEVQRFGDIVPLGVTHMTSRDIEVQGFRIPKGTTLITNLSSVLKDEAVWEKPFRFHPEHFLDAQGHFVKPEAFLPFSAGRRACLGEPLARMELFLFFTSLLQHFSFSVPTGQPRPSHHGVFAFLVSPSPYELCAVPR
Sequence of Beta Secretase enzyme (BACE) (P56817 46-501): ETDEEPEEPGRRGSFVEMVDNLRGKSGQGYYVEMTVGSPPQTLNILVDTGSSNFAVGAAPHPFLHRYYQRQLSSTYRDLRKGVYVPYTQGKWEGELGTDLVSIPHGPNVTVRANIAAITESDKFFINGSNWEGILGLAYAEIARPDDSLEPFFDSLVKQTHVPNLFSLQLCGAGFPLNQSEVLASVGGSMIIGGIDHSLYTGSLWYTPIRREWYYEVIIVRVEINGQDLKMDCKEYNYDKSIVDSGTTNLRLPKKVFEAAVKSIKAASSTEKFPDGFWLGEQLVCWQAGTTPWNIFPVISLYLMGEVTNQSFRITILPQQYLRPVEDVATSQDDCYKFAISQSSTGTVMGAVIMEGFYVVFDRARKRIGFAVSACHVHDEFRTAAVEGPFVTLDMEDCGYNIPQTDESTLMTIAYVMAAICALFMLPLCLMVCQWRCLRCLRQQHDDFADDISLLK

C#Cc1cc(F)cc(C[C@H](NC(C)=O)[C@H](O)CN[C@H]2CC3(CCC3)Oc3ncc(CC(C)(C)C)cc32)c1 [compound 713, N-((1S,2R)-3-(((4′S)-6′-(2,2-dimethylpropyl)-3′,4′-dihydrospiro[cyclobutane-1,2′-pyrano[2,3-b]pyridin]-4′-yl)amino)-1-(3-ethynyl-5-fluorobenzyl)-2-hydroxypropyl)acetamide]
pIC50 [1]: 8.52
RLM [2]: 58 µL/min/mg
pIC50 [3]: 7.82
HLM [4]: 75 µL/min/mg
IC50 (CYP2D6): 1.2 µM
pIC50 (CYP3A4 (CYP3A)): 7.00

COCC(=O)N[C@@H](Cc1cc(F)cc(F)c1)[C@H](O)CN[C@H]1CC2(CCC2)Oc2c1cc(CC(C)C)nc2-c1nccn1C [compound 714]
pIC50 [1]: 7.80
RLM [2]: 43 µL/min/mg
pIC50 [3]: 7.77
HLM [4]: 20 µL/min/mg
IC50 (CYP2D6): 2.2 µM
pIC50 (CYP3A4 (CYP3A)): ≥ 7.52

COCC(=O)N[C@@H](Cc1cc(F)cc(F)c1)[C@H](O)CN[C@H]1CC2(CCC2)Oc2c1cc(CC(C)C)nc2-c1cncn1C [compound 715]
pIC50 [1]: 7.70
RLM [2]: 34 µL/min/mg
pIC50 [3]: 7.80
HLM [4]: 19 µL/min/mg
IC50 (CYP2D6): 1.8 µM
pIC50 (CYP3A4 (CYP3A)): ≥ 7.52

CNc1nc(CC(C)(C)C)cc2c1OC1(CCC1)C[C@@H]2NC[C@@H](O)[C@H](Cc1ccc(F)c(-c2nccs2)c1)NC(=O)COC [compound 716, N-((1S,2R)-3-(((4′S)-6′-(2,2-dimethylpropyl)-8′-(methylamino)-3′,4′-dihydrospiro[cyclobutane-1,2′-pyrano[2,3-c]pyridin]-4′-yl)amino)-1-(4-fluoro-3-(1,3-thiazol-2-yl)benzyl)-2-hydroxypropyl)-2-methoxyacetamide]
pIC50 [1]: 7.49
RLM [2]: 190 µL/min/mg
pIC50 [3]: 7.60
HLM [4]: 123 µL/min/mg
IC50 (CYP2D6): 1.5 µM
pIC50 (CYP3A4 (CYP3A)): 6.40

CC(C)(C)Cc1cnc2c(c1)[C@@H](NC[C@@H](O)[C@H](Cc1ccc(F)cc1)NC(=O)[C@H]1CN(Cc3ccccc3)CCO1)CC1(CCC1)O2 [compound 717]
pIC50 [1]: 7.89
RLM [2]: 298 µL/min/mg
pIC50 [3]: 7.96
HLM [4]: 775 µL/min/mg
IC50 (CYP2D6): 3.6 µM
pIC50 (CYP3A4 (CYP3A)): 6.70

COCC(=O)N[C@@H](Cc1cc(F)cc(-c2nccs2)c1)[C@H](O)CN[C@H]1CC2(CCC2)Oc2cnc(CC(C)(C)F)cc21 [compound 718, N-((1S,2R)-3-(((4′S)-6′-(2-fluoro-2-methylpropyl)-3′,4′-dihydrospiro[cyclobutane-1,2′-pyrano[2,3-c]pyridin]-4′-yl)amino)-1-(3-fluoro-5-(1,3-thiazol-2-yl)benzyl)-2-hydroxypropyl)-2-methoxyacetamide]
pIC50 [1]: 7.29
RLM [2]: 140 µL/min/mg
pIC50 [3]: 7.21
HLM [4]: 113 µL/min/mg
IC50 (CYP2D6): 0.5 µM
pIC50 (CYP3A4 (CYP3A)): 6.52

CO[C@H](C)C(=O)N[C@@H](Cc1cc(F)cc(Cl)c1)[C@H](O)CN[C@H]1CC2(CCC2)Oc2cnc(CC(C)(C)F)cc21 [compound 719]
pIC50 [1]: 7.62
RLM [2]: 775 µL/min/mg
pIC50 [3]: 6.89
HLM [4]: 515 µL/min/mg
IC50 (CYP2D6): 2.4 µM
pIC50 (CYP3A4 (CYP3A)): 6.40

CO[C@H](C)C(=O)N[C@@H](Cc1cc(F)cc(-c2nccs2)c1)[C@H](O)CN[C@H]1CC2(CCC2)Oc2cnc(CC(C)(C)F)cc21 [compound 721, (2R)-N-((1S,2R)-3-(((4′S)-6′-(2-fluoro-2-methylpropyl)-3′,4′-dihydrospiro[cyclobutane-1,2′-pyrano[2,3-c]pyridin]-4′-yl)amino)-1-(3-fluoro-5-(1,3-thiazol-2-yl)benzyl)-2-hydroxypropyl)-2-methoxypropanamide]
pIC50 [1]: 7.31
RLM [2]: 152 µL/min/mg
pIC50 [3]: 6.93
HLM [4]: 111 µL/min/mg
IC50 (CYP2D6): 0.5 µM
pIC50 (CYP3A4 (CYP3A)): 6.52
